Experimental data as given in ChEMBL document CHEMBL1212844, “Synthesis and biological evaluation of naphthoquinone analogs as a novel class of proteasome inhibitors” (Bioorg Med Chem, 2010).

What was measured:
[1] = Inhibition of chymotrypsin like proteolytic activity of rabbit 26S proteasome; set-up: species or system Oryctolagus cuniculus
[2] = Dissociation constant, pKa of the compound; type: physicochemical
[3] = Inhibition of PGPH activity of rabbit 26S proteasome; set-up: species or system Oryctolagus cuniculus
[4] = Inhibition of trypsin like proteolytic activity of rabbit 26S proteasome; set-up: species or system Oryctolagus cuniculus
[5] = Inhibition of calpain
[6] = Inhibition of 26S proteasome-mediated chymotrypsin like proteolytic activity in human MCF7 cells; type: cell-based

Row | SMILES | IC50 [1] | pKa [2] | IC50 [3] | IC50 [4] | IC50 [5] | IC50 [6]
1 | Cc1cc(C)nc(NS(=O)(=O)c2ccc(NC3=C(Cl)C(=O)c4ccccc4C3=O)cc2)n1 | 19 µM | < 7.91 | 50.2 µM | 20.9 µM |  | 
2 | Cc1nnc(NS(=O)(=O)c2ccc(NC3=C(Cl)C(=O)c4ccccc4C3=O)cc2)s1 | 6.4 µM | < 7.91 | 13.4 µM | 10.7 µM |  | 
3 | Cc1noc(NS(=O)(=O)c2ccc(NC3=C(Cl)C(=O)c4ccccc4C3=O)cc2)c1C | 3.9 µM | < 7.91 | 21.2 µM | 9.25 µM |  | 
4 | COc1cc(NC2=C(Cl)C(=O)c3ccccc3C2=O)ccc1S(=O)(=O)Nc1ccccc1C | 13.7 µM |  | 30 µM | 24.3 µM |  | 
5 | Cc1cccc(NS(=O)(=O)c2ccc(NC3=C(Cl)C(=O)c4ccccc4C3=O)cc2)c1 | 20.8 µM |  | > 100 µM | 55 µM |  | 
6 | Cc1cc(NS(=O)(=O)c2ccc(NC3=C(Cl)C(=O)c4ccccc4C3=O)cc2)no1 | 11.2 µM | < 7.91 | 16.7 µM | 13.2 µM |  | 
7 | COc1ccc(NS(=O)(=O)c2ccc(NC3=C(Cl)C(=O)c4ccccc4C3=O)cc2OC)cc1 | 15.3 µM |  | 35 µM | 23.3 µM |  | 
8 | COc1ccccc1NS(=O)(=O)c1ccc(NC2=C(Cl)C(=O)c3ccccc3C2=O)cc1 | 20.8 µM |  | 49.2 µM | 24.7 µM |  | 
9 | O=C1C(Cl)=C(Nc2ccc(S(=O)(=O)Nc3ccnn3-c3ccccc3)cc2)C(=O)c2ccccc21 | 16.3 µM | < 7.91 | 25.6 µM | 20.7 µM |  | 
10 | COc1cccc(NS(=O)(=O)c2ccc(NC3=C(Cl)C(=O)c4ccccc4C3=O)cc2)c1 | 17 µM |  | 43.5 µM | 24.6 µM |  | 
11 | CC(C)C[C@H](NC(=O)[C@H](Cc1ccccc1)NC(=O)c1cnccn1)B(O)O [BORTEZOMIB] |  |  | 0.48 µM | 7 µM |  | 
12 | O=C1C(Cl)=C(Nc2ccc(S(=O)(=O)Nc3nccs3)cc2)C(=O)c2ccccc21 | 3.3 µM | < 7.91 | 14.3 µM | 8.15 µM |  | 
13 | O=C1C(Cl)=C(Nc2ccc(S(=O)(=O)Nc3ccccn3)cc2)C(=O)c2ccccc21 | 1 µM |  | 4.5 µM | 4.5 µM | > 30 µM | 6 µM
